{
  "source": "paper PMC2693004",
  "about": "(Bioorganic & medicinal chemistry letters, 2009)",
  "origin": "cited, not measured here",
  "biological_target": "T1, recombinant human MAO-A (Homo sapiens, UniProt P21397)",
  "T1 sequence (P21397 1-527)": "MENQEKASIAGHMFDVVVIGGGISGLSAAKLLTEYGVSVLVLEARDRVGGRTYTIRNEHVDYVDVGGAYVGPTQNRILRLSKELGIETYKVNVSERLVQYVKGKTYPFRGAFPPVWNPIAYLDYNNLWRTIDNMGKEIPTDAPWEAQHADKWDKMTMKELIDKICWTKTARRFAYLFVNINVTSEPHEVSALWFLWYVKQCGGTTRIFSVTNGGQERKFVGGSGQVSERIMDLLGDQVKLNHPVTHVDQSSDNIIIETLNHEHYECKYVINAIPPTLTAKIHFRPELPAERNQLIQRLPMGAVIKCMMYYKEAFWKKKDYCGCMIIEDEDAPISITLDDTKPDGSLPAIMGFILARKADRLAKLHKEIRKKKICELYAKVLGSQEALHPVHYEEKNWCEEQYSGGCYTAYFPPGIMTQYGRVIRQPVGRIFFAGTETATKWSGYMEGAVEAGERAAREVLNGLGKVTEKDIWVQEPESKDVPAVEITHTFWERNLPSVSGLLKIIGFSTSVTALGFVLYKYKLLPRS",
  "note": "Entries after “also recorded” stand apart in the source; their conditions may differ.",
  "data": [
    {"smiles": "C(=CCc1ccccc1)Cc1ccccc1", "note": "[1,4-diphenyl-2-butene]", "values": [
      {"measurement": "binding to MAO-A", "value": "do not to bind"}
    ]},
    {"smiles": "Cn1c(=O)c2c(nc(/C=C/c3cccc(Cl)c3)n2C)n(C)c1=O", "note": "[CSC, (E)-8-(3-chlorostyryl)caffeine]", "values": [
      {"measurement": "binding to MAO-A", "value": "does not bind; also recorded: do not to bind"}
    ]}
  ]
}
